The numbers were not newly measured in paper PMC9663686, “Proline, hydroxyproline, and pyrrolidone carboxylic acid derivatives as highly efficient but reversible transdermal permeation enhancers” (Scientific Reports, 2022), which cites them from elsewhere.

SMILES strings stand for the structures.

The test system of this series is rat skin. Conditions: 5% concentration (154 mM), topical; cited from earlier work.

For the compound `CCCCCCCCCCCCOC(=O)C1CCCN1C(C)=O` (stereo not shown) [Pro2, N-acetyl proline dodecyl ester], the “visible changes in rat skin after topical application” value is given as “did not cause any visible changes in rat skin”.
